Source: patent publication EP4417616A1, “LXR ANTAGONISTS” (Ospedale San Raffaele S.r.l., priority 2023, dated 2024)

How the values were obtained:
human T cells = experiment: In vitro expansion of activated human T cells by IL-7/IL15; format: cell-based; conditions: human T cells expanded by IL-7/IL15 with PFM037 (5 and 10 µM)
[1] = tested on: MC-38-OVA-liver metastases; format: in vivo, mice; conditions: 1440 h
Experimental: . Forty-eight hours later the cells were differentiated and expanded by IL-7/IL15 (5ng/ml both cytokines) with or without PFM037. Ten, 12 and 15 days later, FACS analysis was performed to evaluate their differentiation status. […]. Then, mice bearing MC-38-OVA-liver metastases were treated with vehicle, or OT-I T cells expanded with IL-2 (effectors), or IL-7/IL15 with or without PFM037. Tumor-bearing mice injected with vehicle were all dead 40 days after tumor injection. Twenty percent of tumor-bearing mice treated with OT-I T cells expanded with IL-2 were alive at 60 days, whereas 50% and 80% of tumor-bearing mice treated with IL-7/IL15 with or without PFM037, respectively, were alive at 60 days (Fig. 20). […].

[2] = tested on: LXR target genes ABCA1, SREBP1c, FASN and SCD1; experiment: Quantitative Real-Time-PCR of LXR target genes in PMA-differentiated U937 cells; format: cell-based, human; conditions: U937 differentiated with PMA 72 hours; PFM037 50, 25 and 10 µM, 16 hours
Experimental: Reporter assay for nuclear receptor transcriptional activity. Human embryonic Kidney 293 cells (American Type Culture Collection) were cultured in Dulbecco's Modified Eagle's medium containing 10% of fetal bovine serum at 37°C in humidified atmosphere of 5% CO2. HEK293 cells (4×10^4 cells per well) were transiently transfected in 48 well plate with the reporter plasmids pMH100X4-TK-luc (100 ng/300µl), Renilla (22 ng/300µl) together with 100 ng/300µl of pCMX-Gal4-LXRα or pCMX-Gal4-LXRβ plasmids using X-tremeGENE 9 DNA Transfection Reagent (Roche). Six hours after transfection, the cells were treated with the appropriate compound for 24 hours. Luciferase activities were analyzed by luciferase Dual Reporter Assay Systems (Promega) according to the manufacturer's protocol. GAL4-LXRs, and TK-MHC100-luc plasmids were described in^7. For mammalian two-hybrid assays the human liver cell line Hhu7 (American Type Culture Collection) was transiently transfected with the reporter plasmids p5xUAS-tk-Luc (100 ng/300µl) together with pGAL4-RAP250-Del4 (133 ng/300µl), described in^39, and either of pVP16-LXRα-LBD or pVP16-LXRβ-LBD plasmids (133 ng/300µl), described in^40, using the jetPrime transfection reagent (Polyplus). Six hours after transfection, the cells were treated with the appropriate compound for 40 hours. Luciferase activity was analyzed as described above and protein content spectrophotometrically using Coomassie Plus Protein assay reagent (Thermo Scientific). Quantitative Real-Time-PCR. U937 cell line was differentiated in foam macrophages with phorbol 12-myristate 13-acetate (PMA) 10 ng/ml (Sigma) for 72 hours at 37°C in RPMI 10% FBS. At day 3 T0901317 (10 µM) or different amount of PFM037 (50, 25 and 10 µM) were added for 16 hours. Total RNA was purified by TRIZOL (Invitrogen). Reverse transcription was performed by MLV-reverse transcriptase (Promega). QPCR was performed using SYBR Green Master Mix (Applied Biosystems) and real-time PCR (Viia 7 Real Time PCR System, Applied Biosystems). PCR reactions were done in triplicate. The comparative Ct method was used to quantify transcripts that were normalized for human GAPDH. The following primer pairs were used: • GAPDH-F 5'-ACATCATCCCTGCCTCTACTG-3' (SEQ ID No. 1); • GAPDH-R 5'-ACCACCTGGTGCTCAGTGTA-3'(SEQ ID No. 2); • ABCA1-F 5'-CCA GGC CAG TAC GGA ATT C-3' (SEQ ID No. 3); • ABCA1-R 5'-CCT CGC CAA ACC AGT AGG A-3' (SEQ ID No. 4); • SREBP-1c-F 5'-GGC GGG CGC AGA TC-3' (SEQ ID No. 5); • SREBP-1c-R 5'-TTGTTGATAAGCTGAAGCATGTCT-3' (SEQ ID No. 6); • FAS F 5'-ACA GCG GGG AAT GGG TAC T-3'(SEQ ID No. 7); • FAS R 5'-GACTGGTACAACGAGCGGAT-3' (SEQ ID No. 8); • SCD1-F 5'-TTCAGAAACACATGCTGATCCTCATAATTC-3' (SEQ ID No. 9); • SCD1-R 5'-ATTAAGCACCACAGCATATCGCAAGAAAGT-3'(SEQ ID No. 10)

[3] = tested on: Lewis Lung Carcinoma (LLC); experiment: Treatment of LLC tumor-bearing mice; format: in vivo
Text: Tumor challenge experiments.

[4] = tested on: bone marrow-purified monocytes; experiment: In vitro mono-DC differentiation of bone marrow-purified monocytes cultured with M-CSF; format: cell-based, mouse; conditions: wild type monocytes, 48 hours of culture
[5] = LLC-bearing mice, 300 µg i.v. 5 days/week from day 6-7, vs vehicle

CC(C)CC[C@H](O)[C@@H](C)[C@H]1CC[C@H]2[C@@H]3CC=C4C[C@@H](OS(=O)(=O)[O-])CC[C@]4(C)[C@H]3CC[C@]12C.[Na+] [PFM037, 22(S)-Hydroxycholesterol-3-sulfate sodium salt]
markers associated to memory/stem cell memory T cells (human T cells): higher levels
tumor-bearing mice alive at 60 days [1]: 50%
ABCA1 transcripts [2]: no activation
FASN mRNA expression [2]: inhibition
SCD1 mRNA expression [2]: inhibition
SREBP-1c mRNA expression [2]: inhibition
absolute numbers of tumor-infiltrating mono-DCs [3, 5]: Higher
tumor growth [3, 5]: delay of tumor growth
tumor growth ([3]; established LLC tumors, 300 µg/mouse every other day, Fig. 24B): able to control LLC tumor growth
LLC growth in wild type BM-chimera mice ([3]; wild type BM-chimera mice, compared to vehicle, Fig. 7C): better control of LLC growth
CD11c marker expression [4]: expressed CD11c marker
